The record followed here is US8999983B2, “Modulators of Hec1 activity and methods therefor” (Taivex Therapeutics Corporation, priority 2011, dated 2015).

Series [1] has as its system caspase-3, PARP, Mcl-1 and XIAP. As to the kind of experiment: Immunoblot of apoptotic pathway proteins. To be noted: 1 μM, 24 or 48 hours. It counts as cell-based. How it is done:
Immunoblot Analysis: For immunoblotting experiments, cells were plated in a 6-well culture plate and cultured overnight. Cells were incubated with the test compounds for the indicated time and whole cell lysate was harvested by adding 1×SDS-PAGE Sample Buffer (62.5 mM Tris-HCl (pH 6.8 at 25° C.), 2% w/v SDS, 10% glycerol, 50 mM DTT, and 0.01% w/v bromophenol blue or phenol red). Proteins were separated by SDS-PAGE electrophoresis and transferred to PVDF membrane. Protein expression was immunoblotted using various primary antibodies and detected using Immobilon Western Chemiluminescent HRP Substrate (Millipore, Billerica Mass. 01821 USA). Antibodies used include anti-Cleaved Caspase3, (Rabbit, Cell Signaling Technology, Danvers Mass. 01923 USA); anti-PARP (Rabbit, Cell Signaling Technology, Danvers Mass. 01923 USA); anti-MCL-1 (mouse, BD Biosciences, San Jose Calif. 95131 USA); anti-XIAP (rabbit, Cell Signaling Technology, Danvers Mass. 01923 USA); anti-Bcl-2 (mouse, Santa Cruz Biotechnology, Santa Cruz Calif. 95060); anti-Cyclin BI (mouse, BD Biosciences, San Jose Calif. 95131 USA); anti-Cyclin D1 (mouse, Santa Cruz Biotechnology, Santa Cruz Calif. 95060); Anti-Nek2 (mouse, BD Biosciences, San Jose Calif. 95131 USA); Anti-HEC1, (rabbit, GeneTex, Inc., Irvine Calif. 92606 USA); and anti-actin (mouse, Millipore, Billerica Mass. 01821 USA).
100 nM Taxol was used as a positive control drug for apoptosis.

Series [2] in a line: Body weight in mouse xenograft studies. The class given is in vivo, nude mice. The protocol:
Mouse Xenograft Studies: Xenograft studies adapted from a previous published protocol (Wu et al, Cancer Res. 2008 Oct. 15; 68(20):8393-9). Female BALB/c nude (nu/nu) mice (5-8 weeks) were obtained from Lasco (Industrial Park, Tai-Ping Area, Taichung City, Taiwan). The animals were maintained under specific pathogen-free conditions, and food and water were supplied ad libitum. Housing and all procedures involving animals were performed according to protocols approved by the IACUC in DCB. Nude mice were inoculated with 17-β-estradiol pellets 72 to 96 h before implantation of BT-474 cells. For subcutaneous implantation of BT-474 cells, cells (1×10^7 in matrix gel/animal) were injected subcutaneously into the right subaxillary region. Treatment started when average tumor volume reached about 200 mm^3; mice were treated (p.o., QD/28 cycles in total) with vehicle A (0.5% methylcellulose), or candidate compounds formulated in vehicle A (10-50 mg/kg body weight). Perpendicular diameter measurement of each tumor were made with digital calipers and the volume of the tumor calculated using formula (L×W×W)/2, in which L and W represent the length and the width, respectively. Body weights were measured three times weekly.
The in vivo effectiveness of contemplated compounds in the reduction of tumor volume in nude mice is readily apparent.
Development of resistance to treatment in advanced stage tumors is a well known phenomenon. Activity of select Hec1 inhibitor in such late stage tumors was determined by re-dosing of BT474 xenografted animals that had previously subjected to 35 days of treatment with 110095 (compound 27 of Table 1). Re-treatment with 110095 was starting on day 42 and continued for 21 days.

The target in another series is T1, Hec1-Nek2 interaction (Homo sapiens, UniProt O14777).
T1 construct: endogenous in cells; host or cells: K562
T1 sequence (O14777 1-642): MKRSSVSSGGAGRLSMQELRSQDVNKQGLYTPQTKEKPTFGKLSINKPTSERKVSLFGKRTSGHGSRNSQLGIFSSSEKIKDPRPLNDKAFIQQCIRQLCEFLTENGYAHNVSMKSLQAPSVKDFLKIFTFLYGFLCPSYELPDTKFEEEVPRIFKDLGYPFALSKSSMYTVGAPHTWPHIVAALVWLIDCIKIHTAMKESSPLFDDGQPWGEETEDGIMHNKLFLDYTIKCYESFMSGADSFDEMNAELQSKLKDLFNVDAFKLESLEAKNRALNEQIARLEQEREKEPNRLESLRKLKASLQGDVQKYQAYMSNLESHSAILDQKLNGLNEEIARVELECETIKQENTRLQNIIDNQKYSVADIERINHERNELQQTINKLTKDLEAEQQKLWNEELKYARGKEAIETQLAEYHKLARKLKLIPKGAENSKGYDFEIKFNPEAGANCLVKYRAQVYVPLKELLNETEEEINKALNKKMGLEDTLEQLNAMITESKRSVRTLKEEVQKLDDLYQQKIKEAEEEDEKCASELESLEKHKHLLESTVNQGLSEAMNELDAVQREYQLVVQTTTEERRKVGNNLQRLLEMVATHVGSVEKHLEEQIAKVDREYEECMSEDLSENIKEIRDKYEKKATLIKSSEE
Nature of the series: Co-immunoprecipitation analysis of Hec1-Nek2 interaction in K562 cells. It counts as cell-based. Conditions: K562 cells treated 8 or 16 hours. How it is done: Co-Immunoprecipitation Analysis: Co-immunoprecipitation (Co-IP)/Western blotting assays were performed to assess the effects of Hec1 inhibitory compounds on Hec1-Nek2 interaction. K562 cells were treated with Hec1 inhibitory compounds as indicated. After harvesting and washing once with cold PBS, cells were lysed on ice in lysis buffer (50 mM Tris (pH 7.5), 250 mM NaCl, 5 mM EDTA (pH 8.0), 0.1% NP-40, 1 mM PMSF, 50 mM NaF, and protease inhibitor cocktail (P/N P8340 Sigma Aldrich, St. Louis Mo. USA) for 30 min. Lysates were then centrifuged at 12,000 rpm at 4° C. for 20 minutes. Input supernatant was incubated in the presence of anti Nek2 antibody (rabbit anti-Nek2, Rockland Immunochemicals, Gilbertsville, Pa. 19525 USA) or IgG control antibody for 2 h at 4° C., followed by the addition protein G coupled to agarose beads (GE Healthcare, Anaheim Calif. 92805 USA). After mixing for 1 h at 4° C., the agarose beads were centrifuged at 12,000 rpm at 4° C. for 20 seconds. The beads were then washed 5 times with cold Co-IP buffer, boiled in SDS-PAGE sample buffer followed by SDS-PAGE. The presence of Hec1 and Nek2 was detected by Western blotting with mouse monoclonal antibodies directed to Hec1 (GeneTex, Inc., Irvine Calif. 92606 USA) and Nek2 (BD Biosciences, San Jose Calif. 95131 USA). […]

For the next series, the system named is MDA-MB-231 xenograft. Nature of the series: Mouse xenograft study, MDA-MB-231 breast cancer. It counts as in vivo. Conditions: MDA-MB-231 breast cancer xenograft, nude mice.

For the molecule `COCCOc1cnc(Sc2cc(C)c(-c3csc(NC(=O)c4ccncc4)n3)c(C)c2)cn1` [Compound 27, N-(4-{4-(5-(2-methoxyethoxy)pyrazin-2-ylthio)-2,6-dimethylphenyl}thiazol-2-yl)isonicotinamide], the “levels of apoptotic (caspase-3, PARP) and anti-apoptotic (Mcl-1, XIAP) proteins” value in series [1] is given as “cleavage of the apoptotic proteins accompanied by down-regulation of the anti-apoptotic proteins”. The body weight result in series [2] (re-treatment of late stage xenografts) is reported as “body weight remained constant”; in series [2] (xenograft studies FIG. 7A-7D, nude mice) it was “body weight remained constant”. The “Hec1/Nek2 interaction (Hec1 in Nek2 immunoprecipitates)” value at Hec1-Nek2 interaction is reported as “significantly disrupted Hec1/Nek2 interaction”. Further, the xenograft tumor outgrowth result in the series on MDA-MB-231 xenograft is “inhibition of xenograft tumor outgrowth”.
